Reference: the kinase profiling compilation of Christmann-Franck et al. (2016)

Tests used:
Experiment in all cases: radiometric filter-binding kinase assay, Kinase HotSpot
Settings in all cases: compound 0.5 µM; ATP 10 µM
ABL2 (human) = ABL2 (human) (UniProt P42684)
AKT1 (human) = AKT1 (human) (UniProt P31749)
ALK (human) = ALK (human) (UniProt Q9UM73)
AURKA (human) = AURKA (human) (UniProt O14965)
BTK (human) = BTK (human) (UniProt Q06187)
CAMK2A (human) = CAMK2A (human) (UniProt Q9UQM7)
CDC42BPA (human) = CDC42BPA (human) (UniProt Q5VT25)
CDC42BPB (human) = CDC42BPB (human) (UniProt Q9Y5S2)
CDK4 CCND1 (human) = CDK4 CCND1 (human) (UniProt P24385+P11802)
CDK5 CDK5R1 p35 (human) = CDK5 CDK5R1 p35 (human) (UniProt Q00535+Q15078)
DMPK (human) = DMPK (human) (UniProt Q09013)
DYRK1B (human) = DYRK1B (human) (UniProt Q9Y463)
EPHA8 (human) = EPHA8 (human) (UniProt P29322)
EPHB2 (human) = EPHB2 (human) (UniProt P29323)
FGFR1 (human) = FGFR1 (human) (UniProt P11362)
FGFR2 (human) = FGFR2 (human) (UniProt P21802)
FGR (human) = FGR (human) (UniProt P09769)
GRK4 (human) = GRK4 (human) (UniProt P32298)
GSG2 (human) = GSG2 (human) (UniProt Q8TF76)
IRAK1 (human) = IRAK1 (human) (UniProt P51617)
[1] = molecular target: JAK1 JH1 catalytic (human) (UniProt P23458)
Sequence of JAK1 JH1 catalytic (human) (P23458 whole entry, looked up): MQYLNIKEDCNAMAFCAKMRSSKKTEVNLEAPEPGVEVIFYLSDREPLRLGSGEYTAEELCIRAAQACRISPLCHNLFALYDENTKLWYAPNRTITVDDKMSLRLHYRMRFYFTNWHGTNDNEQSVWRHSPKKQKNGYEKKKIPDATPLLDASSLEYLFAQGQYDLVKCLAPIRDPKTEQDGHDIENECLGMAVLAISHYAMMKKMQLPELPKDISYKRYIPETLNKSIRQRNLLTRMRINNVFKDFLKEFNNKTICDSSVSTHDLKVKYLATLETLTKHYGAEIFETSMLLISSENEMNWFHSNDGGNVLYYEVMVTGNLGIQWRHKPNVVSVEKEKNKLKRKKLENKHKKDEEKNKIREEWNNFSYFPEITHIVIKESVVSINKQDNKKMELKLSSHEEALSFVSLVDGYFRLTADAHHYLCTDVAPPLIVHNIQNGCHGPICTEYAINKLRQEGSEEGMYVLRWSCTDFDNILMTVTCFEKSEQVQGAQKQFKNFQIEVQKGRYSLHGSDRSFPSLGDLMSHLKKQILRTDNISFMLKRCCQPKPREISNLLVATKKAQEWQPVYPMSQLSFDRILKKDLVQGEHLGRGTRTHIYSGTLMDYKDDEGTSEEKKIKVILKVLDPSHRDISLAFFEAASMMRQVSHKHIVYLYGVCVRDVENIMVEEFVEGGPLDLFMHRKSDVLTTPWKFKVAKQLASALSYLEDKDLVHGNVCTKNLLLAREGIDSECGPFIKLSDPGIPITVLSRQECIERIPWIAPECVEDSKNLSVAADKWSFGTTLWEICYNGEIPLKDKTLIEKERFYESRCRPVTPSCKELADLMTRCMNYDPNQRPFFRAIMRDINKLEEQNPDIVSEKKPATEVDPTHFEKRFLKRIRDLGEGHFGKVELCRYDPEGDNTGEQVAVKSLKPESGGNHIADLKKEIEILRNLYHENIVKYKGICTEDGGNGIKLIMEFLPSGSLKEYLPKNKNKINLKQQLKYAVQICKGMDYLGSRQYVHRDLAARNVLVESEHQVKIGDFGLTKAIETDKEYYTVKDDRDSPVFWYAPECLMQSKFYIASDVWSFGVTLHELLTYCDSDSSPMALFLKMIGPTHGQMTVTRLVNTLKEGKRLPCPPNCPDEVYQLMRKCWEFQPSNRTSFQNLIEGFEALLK

JAK3 JH1 JH2 (human) = JAK3 JH1 JH2 (human) (UniProt P52333)
Sequence of JAK3 JH1 JH2 (human) (P52333 whole entry, looked up): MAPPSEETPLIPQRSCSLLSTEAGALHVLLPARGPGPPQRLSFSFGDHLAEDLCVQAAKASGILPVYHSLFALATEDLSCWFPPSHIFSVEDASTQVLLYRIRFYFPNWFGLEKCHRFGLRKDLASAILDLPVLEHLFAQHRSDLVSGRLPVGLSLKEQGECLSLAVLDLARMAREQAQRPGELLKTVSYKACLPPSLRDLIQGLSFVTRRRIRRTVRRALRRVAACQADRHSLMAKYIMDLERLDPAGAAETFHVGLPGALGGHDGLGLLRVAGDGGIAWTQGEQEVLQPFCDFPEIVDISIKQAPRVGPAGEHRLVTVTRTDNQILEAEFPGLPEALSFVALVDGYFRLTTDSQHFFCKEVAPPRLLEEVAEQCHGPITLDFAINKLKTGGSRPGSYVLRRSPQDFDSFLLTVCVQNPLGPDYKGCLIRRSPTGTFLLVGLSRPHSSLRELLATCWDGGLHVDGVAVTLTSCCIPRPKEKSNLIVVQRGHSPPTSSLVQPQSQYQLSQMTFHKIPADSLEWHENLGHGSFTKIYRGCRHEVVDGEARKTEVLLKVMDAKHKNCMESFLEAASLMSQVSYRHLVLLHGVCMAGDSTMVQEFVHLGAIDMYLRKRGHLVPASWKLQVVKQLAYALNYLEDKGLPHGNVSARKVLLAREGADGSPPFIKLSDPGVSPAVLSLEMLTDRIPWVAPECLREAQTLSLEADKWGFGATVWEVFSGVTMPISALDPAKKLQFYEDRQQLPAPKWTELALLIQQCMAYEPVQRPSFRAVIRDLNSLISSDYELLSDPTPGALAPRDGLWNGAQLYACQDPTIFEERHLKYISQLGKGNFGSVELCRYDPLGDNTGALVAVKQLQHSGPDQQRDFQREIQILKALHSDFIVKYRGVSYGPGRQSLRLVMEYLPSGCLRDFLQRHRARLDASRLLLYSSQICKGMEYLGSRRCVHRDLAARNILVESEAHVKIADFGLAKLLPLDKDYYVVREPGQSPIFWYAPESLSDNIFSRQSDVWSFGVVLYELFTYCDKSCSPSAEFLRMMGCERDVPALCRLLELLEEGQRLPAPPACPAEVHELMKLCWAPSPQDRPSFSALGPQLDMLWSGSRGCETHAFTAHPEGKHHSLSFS

MAPK10 (human) = MAPK10 (human) (UniProt P53779)
Sequence of MAPK10 (human) (P53779 whole entry, looked up): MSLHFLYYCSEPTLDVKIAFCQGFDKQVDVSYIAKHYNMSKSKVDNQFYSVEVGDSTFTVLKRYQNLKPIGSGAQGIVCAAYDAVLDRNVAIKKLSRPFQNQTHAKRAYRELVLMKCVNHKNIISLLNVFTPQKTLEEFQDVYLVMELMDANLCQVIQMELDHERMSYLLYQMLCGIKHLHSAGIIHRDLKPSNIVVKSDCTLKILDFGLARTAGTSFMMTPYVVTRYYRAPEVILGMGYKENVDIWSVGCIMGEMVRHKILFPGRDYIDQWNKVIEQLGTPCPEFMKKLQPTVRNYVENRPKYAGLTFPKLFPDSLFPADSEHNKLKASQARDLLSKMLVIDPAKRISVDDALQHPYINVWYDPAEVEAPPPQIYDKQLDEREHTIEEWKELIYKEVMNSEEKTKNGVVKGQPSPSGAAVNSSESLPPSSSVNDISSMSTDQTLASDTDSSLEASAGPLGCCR

MAPK9 (human) = MAPK9 (human) (UniProt P45984)
Sequence of MAPK9 (human) (P45984 whole entry, looked up): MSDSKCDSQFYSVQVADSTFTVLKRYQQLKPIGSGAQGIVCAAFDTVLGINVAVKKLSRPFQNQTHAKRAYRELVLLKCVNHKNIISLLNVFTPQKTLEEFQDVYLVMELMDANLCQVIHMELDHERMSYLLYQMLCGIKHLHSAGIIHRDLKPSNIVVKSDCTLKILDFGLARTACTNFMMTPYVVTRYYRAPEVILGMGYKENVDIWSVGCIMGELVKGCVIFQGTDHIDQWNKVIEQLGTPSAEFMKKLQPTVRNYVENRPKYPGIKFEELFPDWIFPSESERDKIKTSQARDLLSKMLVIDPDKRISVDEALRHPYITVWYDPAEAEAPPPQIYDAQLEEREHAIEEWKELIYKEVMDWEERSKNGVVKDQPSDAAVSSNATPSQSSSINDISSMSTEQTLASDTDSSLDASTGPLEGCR

MYO3B (human) = MYO3B (human) (UniProt Q8WXR4)
NEK2 (human) = NEK2 (human) (UniProt P51955)
NTRK1 (human) = NTRK1 (human) (UniProt P04629)
OXSR1 (human) = OXSR1 (human) (UniProt O95747)
Sequence of OXSR1 (human) (O95747 whole entry, looked up): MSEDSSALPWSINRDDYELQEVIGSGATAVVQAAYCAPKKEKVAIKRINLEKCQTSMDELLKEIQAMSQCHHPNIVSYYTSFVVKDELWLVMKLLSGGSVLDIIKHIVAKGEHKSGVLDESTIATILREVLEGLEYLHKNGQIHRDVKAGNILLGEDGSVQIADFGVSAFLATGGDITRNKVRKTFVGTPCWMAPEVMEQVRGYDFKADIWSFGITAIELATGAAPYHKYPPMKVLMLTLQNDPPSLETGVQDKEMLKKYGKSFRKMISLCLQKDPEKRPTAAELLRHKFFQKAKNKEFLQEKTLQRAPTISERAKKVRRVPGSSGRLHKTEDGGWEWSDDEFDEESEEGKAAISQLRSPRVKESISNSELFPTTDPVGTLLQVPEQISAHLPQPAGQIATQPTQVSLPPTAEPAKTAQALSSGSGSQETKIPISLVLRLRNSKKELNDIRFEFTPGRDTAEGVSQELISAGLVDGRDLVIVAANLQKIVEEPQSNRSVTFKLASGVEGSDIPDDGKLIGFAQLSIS

PAK7 (human) = PAK7 (human) (UniProt Q9P286)
PLK2 (human) = PLK2 (human) (UniProt Q9NYY3)
PRKCD (human) = PRKCD (human) (UniProt Q05655)
PRKD1 (human) = PRKD1 (human) (UniProt Q15139)
RPS6KA1 KD1 KD2 (human) = RPS6KA1 KD1 KD2 (human) (UniProt Q15418)
RPS6KA4 KD2 (human) = RPS6KA4 KD2 (human) (UniProt O75676)
RPS6KB2 (human) = RPS6KB2 (human) (UniProt Q9UBS0)
SIK2 (human) = SIK2 (human) (UniProt Q9H0K1)
SRPK3 (human) = SRPK3 (human) (UniProt Q9UPE1)
Sequence of SRPK3 (human) (Q9UPE1 whole entry, looked up): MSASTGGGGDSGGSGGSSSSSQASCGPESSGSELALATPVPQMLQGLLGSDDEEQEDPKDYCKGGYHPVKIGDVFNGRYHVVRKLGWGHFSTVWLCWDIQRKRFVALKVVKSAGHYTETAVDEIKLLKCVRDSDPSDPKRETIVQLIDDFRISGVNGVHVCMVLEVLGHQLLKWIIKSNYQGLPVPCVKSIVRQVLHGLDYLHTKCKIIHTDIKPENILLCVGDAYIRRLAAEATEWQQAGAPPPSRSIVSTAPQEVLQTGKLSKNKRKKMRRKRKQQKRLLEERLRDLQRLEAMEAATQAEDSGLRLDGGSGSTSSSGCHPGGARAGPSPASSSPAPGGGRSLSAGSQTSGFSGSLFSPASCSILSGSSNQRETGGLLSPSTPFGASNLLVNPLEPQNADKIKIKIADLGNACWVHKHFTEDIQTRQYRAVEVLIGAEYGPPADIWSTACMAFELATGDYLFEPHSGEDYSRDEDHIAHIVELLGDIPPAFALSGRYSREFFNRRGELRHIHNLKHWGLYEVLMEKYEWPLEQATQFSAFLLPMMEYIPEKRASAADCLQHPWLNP

TAOK2 (human) = TAOK2 (human) (UniProt Q9UL54)
TLK2 (human) = TLK2 (human) (UniProt Q86UE8)
TNK2 (human) = TNK2 (human) (UniProt Q07912)
WEE1 (human) = WEE1 (human) (UniProt P30291)
Sequence of WEE1 (human) (P30291 whole entry, looked up): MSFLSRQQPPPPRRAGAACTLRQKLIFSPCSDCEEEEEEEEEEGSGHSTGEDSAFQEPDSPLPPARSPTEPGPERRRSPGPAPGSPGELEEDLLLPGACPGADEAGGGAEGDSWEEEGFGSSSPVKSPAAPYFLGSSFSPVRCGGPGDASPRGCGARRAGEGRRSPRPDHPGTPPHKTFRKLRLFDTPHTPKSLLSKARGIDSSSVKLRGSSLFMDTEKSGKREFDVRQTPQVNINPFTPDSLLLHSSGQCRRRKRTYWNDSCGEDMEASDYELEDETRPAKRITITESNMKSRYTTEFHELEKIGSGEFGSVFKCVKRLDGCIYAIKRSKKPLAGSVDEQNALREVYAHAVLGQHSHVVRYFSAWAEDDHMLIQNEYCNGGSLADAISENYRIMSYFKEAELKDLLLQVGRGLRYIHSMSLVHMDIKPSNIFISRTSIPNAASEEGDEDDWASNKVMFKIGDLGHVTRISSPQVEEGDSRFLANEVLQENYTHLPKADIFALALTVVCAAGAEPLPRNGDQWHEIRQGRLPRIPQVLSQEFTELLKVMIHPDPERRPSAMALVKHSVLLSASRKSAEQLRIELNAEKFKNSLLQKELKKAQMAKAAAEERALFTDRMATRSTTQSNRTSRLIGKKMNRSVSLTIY

MAP2K1 (human) = MAP2K1 (human) (UniProt Q02750)

CCOC(=O)c1c(C)[nH]c(/C=C2\C(=O)Nc3ccccc32)c1C
residual activity (ABL2 (human)): 88.5% | residual activity (AKT1 (human)): 96.1% | residual activity (ALK (human)): 79.2% | residual activity (AURKA (human)): 90.4% | residual activity (BTK (human)): 95.6% | residual activity (CAMK2A (human)): 96.8% | residual activity (CDC42BPA (human)): 85.7% | residual activity (CDC42BPB (human)): 110% | residual activity (CDK4 CCND1 (human)): 103% | residual activity (CDK5 CDK5R1 p35 (human)): 96.7% | residual activity (DMPK (human)): 101% | residual activity (DYRK1B (human)): 105% | residual activity (EPHA8 (human)): 88.7% | residual activity (EPHB2 (human)): 95.4% | residual activity (FGFR1 (human)): 78.6% | residual activity (FGFR2 (human)): 97.9% | residual activity (FGR (human)): 79.3% | residual activity (GRK4 (human)): 82.9% | residual activity (GSG2 (human)): 92.9% | residual activity (IRAK1 (human)): 111% | residual activity [1]: 97.1% | residual activity (JAK3 JH1 JH2 (human)): 69.1% | residual activity (MAPK10 (human)): 86.8% | residual activity (MAPK9 (human)): 93.9% | residual activity (MYO3B (human)): 74.1% | residual activity (NEK2 (human)): 91.4% | residual activity (NTRK1 (human)): 69.9% | residual activity (OXSR1 (human)): 87.9% | residual activity (PAK7 (human)): 83.9% | residual activity (PLK2 (human)): 102% | residual activity (PRKCD (human)): 91.6% | residual activity (PRKD1 (human)): 91.3% | residual activity (RPS6KA1 KD1 KD2 (human)): 77.6% | residual activity (RPS6KA4 KD2 (human)): 87% | residual activity (RPS6KB2 (human)): 103% | residual activity (SIK2 (human)): 99.9% | residual activity (SRPK3 (human)): 88.8% | residual activity (TAOK2 (human)): 105% | residual activity (TLK2 (human)): 96.5% | residual activity (TNK2 (human)): 92.7% | residual activity (WEE1 (human)): 91.2%

O=C1NC(=O)c2c1c1c3ccccc3n3c1c1c2c2ccccc2n1C1CCC3O1
residual activity (ABL2 (human)): 68% | residual activity (AKT1 (human)): 63.9% | residual activity (ALK (human)): 36.9% | residual activity (AURKA (human)): 22.3% | residual activity (BTK (human)): 43.3% | residual activity (CAMK2A (human)): 2.84% | residual activity (CDC42BPA (human)): 84% | residual activity (CDK4 CCND1 (human)): 11.2% | residual activity (CDK5 CDK5R1 p35 (human)): 23.3% | residual activity (DMPK (human)): 98.8% | residual activity (DYRK1B (human)): 3.15% | residual activity (EPHA8 (human)): 89.9% | residual activity (EPHB2 (human)): 98.4% | residual activity (FGFR1 (human)): 29.1% | residual activity (FGFR2 (human)): 34.1% | residual activity (FGR (human)): 30.9% | residual activity (GRK4 (human)): 77% | residual activity (GSG2 (human)): 18.5% | residual activity (IRAK1 (human)): 37.5% | residual activity [1]: 22.2% | residual activity (JAK3 JH1 JH2 (human)): 1.87% | residual activity (MAP2K1 (human)): 29.5% | residual activity (MAPK10 (human)): 138% | residual activity (MAPK9 (human)): 96.1% | residual activity (MYO3B (human)): 19.1% | residual activity (NEK2 (human)): 93.8% | residual activity (NTRK1 (human)): 4.98% | residual activity (OXSR1 (human)): 92.4% | residual activity (PAK7 (human)): 64.7% | residual activity (PLK2 (human)): 62.4% | residual activity (PRKCD (human)): 19% | residual activity (PRKD1 (human)): 1.89% | residual activity (RPS6KA1 KD1 KD2 (human)): 1.58% | residual activity (RPS6KA4 KD2 (human)): 12.4% | residual activity (RPS6KB2 (human)): 35% | residual activity (SIK2 (human)): 33.9% | residual activity (SRPK3 (human)): 63.6% | residual activity (TAOK2 (human)): 57.4% | residual activity (TLK2 (human)): 14.1% | residual activity (TNK2 (human)): 2.39% | residual activity (WEE1 (human)): 16.9%
